Test [1] deals with IL-6. The test is described as follows: Inhibition of R848-induced IL-6 release in human PBMCs, IL-6 ELISA. The class given is cell-based. The following applies: compound 24 hours, then R848 10 µg/mL 5 hours. The method, then: Example 3: Detection of inhibition of R848-induced IL-6 release
Cryopreserved human PBMCs (Milestone® Biotechnologies, PB010C-W) were thawed and resuspended in RPMI-1640 medium (Gibco, 22400-105) supplemented with 10% fetal bovine serum (Gibco, 10099-141), 100 U/mL penicillin, and 100 µg/mL streptomycin (Gibco, 15140122). Subsequently, 190 µL of the PBMC suspension was added to each well of 96-well clear cell culture plates (Corning, 3599) to achieve a density of 1×10^5 cells/well. The cell plates were incubated at 37°C in a 5% CO2 incubator for 30 minutes. Then, 5 µL of diluted compound solution was added to the corresponding cell-seeded wells to achieve final concentrations ranging from 0.046 to 3,000 nM. The final concentration of DMSO was 0.1%. After the compound-treated cell plate was incubated at 37°C in a 5% CO2 incubator for 24 hours, 5 µL of R848 (MCE, HY-13740) was added to achieve a final concentration of 10 µg/mL. The cell plates were incubated again at 37°C in a 5% CO2 incubator for 5 hours, then centrifuged at 1,000 rpm for 1 minute. 100 µL of the cell supernatant from each well was transferred to a new 96-well clear cell culture plate for IL-6 concentration testing.
Interleukin-6 (IL-6) ELISA assay
The IL-6 concentration in the supernatant of R848-induced human PBMCs was determined using a Human IL-6 (interleukin-6) ELISA KIT (4Bio, CHE0009-048). IL-6 standard solutions at different concentrations, ranging from 3.9 to 250 pg/mL, were prepared according to the manufacturer's instructions. 100 µL of each concentration of the IL-6 standard solution and the pre-diluted test cell supernatant samples were added separately to anti-IL-6 antibody-coated and blocked clear 96-well plates, followed by incubation at 37°C for 1.5 hours. According to the product instructions, the plates were washed, 100 µL of biotinylated antibody was added, and the plates were incubated at 37°C for 1 hour. The plates were washed, 100 µL of enzyme conjugate working solution was added. The plates were incubated at 37°C for 30 minutes, and then washed. 100 µL of chromogenic substrate was added, and the plates were incubated at 37°C for 10-20 minutes. The reaction was terminated by adding 100 µL of stop solution. After the reaction, the OD value at 450 nm was measured in absorbance mode using an Envision microplate reader (PerkinElmer). A standard curve was plotted using the corrected OD values of the various concentrations of IL-6 standard solutions. The IL-6 concentration in each cell supernatant was then determined on the basis of the corresponding concentration for the corrected OD value of the test sample on the standard curve. […] Subsequently, the IC50 value of the compound was calculated by performing non-linear curve fitting of concentration versus inhibition rate using GraphPad Prism 9.
Background: In an ELISA, binding on a coated surface is turned into a signal by an enzyme label.

Test [2] addresses T1, IRAK4 (Homo sapiens, UniProt Q9NWZ3).
T1 sequence (Q9NWZ3 1-460): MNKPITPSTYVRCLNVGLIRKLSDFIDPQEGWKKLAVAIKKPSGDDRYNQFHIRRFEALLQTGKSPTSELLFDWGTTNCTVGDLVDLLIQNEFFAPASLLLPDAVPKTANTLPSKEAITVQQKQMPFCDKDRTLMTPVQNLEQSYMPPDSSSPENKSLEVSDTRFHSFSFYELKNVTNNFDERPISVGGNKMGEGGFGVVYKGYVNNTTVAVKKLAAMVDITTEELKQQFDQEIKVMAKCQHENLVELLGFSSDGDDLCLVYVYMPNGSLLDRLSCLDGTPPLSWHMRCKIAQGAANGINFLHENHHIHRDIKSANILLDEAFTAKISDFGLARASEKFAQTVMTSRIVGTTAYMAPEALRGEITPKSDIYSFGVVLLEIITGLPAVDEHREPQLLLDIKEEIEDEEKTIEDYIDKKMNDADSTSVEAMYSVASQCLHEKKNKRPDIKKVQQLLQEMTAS
The test is described as follows: Degradation of IRAK4 in THP1 cells, Western blot. In kind it is cell-based. Details: Degradation of IRAK4 in THP1 by compound; host or cells: THP-1. The following applies: THP-1 cells, 24 hours of incubation. The gist of the method:
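Degradation rate derived from densitometry of IRAK4 bands versus DMSO-treated controls. Read-out: anti-IRAK4 immunoblot (10% gel, 40 μg total protein per lane, BCA-normalised) of lysates from THP1 cells incubated with compound for 24 h.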
In general terms: Immunoblotting shows a protein as a band on a membrane.

For test [3], the target named is T1, IRAK4. The test is described as follows: Assay for inhibitory effect of compound on IRAK4 kinase activity (KinEASE-STK S1 HTRF kit). The conditions noted are these: kinase 8 nM, ATP 80 µM, 37°C 90 minutes; read-out: IRAK4 HTRF IC50. The class given is biochemical. A digest of the protocol:
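HTRF assay: 8 nM IRAK4 preincubated 15 minutes at rt with compound (final 5,000–0.0254 nM, 3-fold dilutions), then 400 nM biotinylated STK1 substrate and 80 µM ATP, 90 minutes at 37°C. Eu-cryptate anti-phospho-Ser/Thr antibody and streptavidin-XL665 detection, 665/620 ratio; IC50 from nonlinear fit of inhibition.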

Drawing on patent EP4763839A1 (Pamplona Therapeutics (Shenzhen) Co., Ltd., priority 2023, dated 2025), this text covers IC50, DC50 and Dmax for 24 molecules.

As usually defined, the IC50 is the concentration that inhibits the measured activity by half. Usually DC50 stands for the concentration giving 50% degradation. In general, Dmax refers to the greatest extent of degradation seen.

In the case of `NC(=O)c1nn(-c2ccc(CN3CCC4(CC3)CN(c3ccc5c(c3)C(=O)N(C3CCC(=O)NC3=O)C5=O)C4)cc2)cc1NC(=O)c1cccc(C(F)(F)F)n1` (centres unmarked) [Compound A224, N-(3-carbamoyl-1-(4-((2-(2-(2,6-dioxopiperidin-3-yl)-1,3-dioxoisoindolin-5-yl)-2,7-diazaspiro[3.5]nonan-7-yl)methyl)phenyl)-1H-pyrazol-4-yl)-6-(trifluoromethyl)picolinamide], in test [1] (PBMC), the IC50 fell in the range of 0.01 to 0.03 µM. In addition, in test [2] (IRAK4 protein by Western blot, read-out: DC50), the 50% degradation concentration (DC50) lay in the range of 0.1 to 1 µM. For the same molecule, the Dmax in test [2] (maximum degradation rate, read-out: Dmax) is above 60%.

`NC(=O)c1nn(-c2ccc(N3CCN(CC4CCN(c5ccc(N6CCC(=O)NC6=O)cc5)CC4)CC3)cc2)cc1NC(=O)c1cccc(C(F)(F)F)n1` [Compound A192, N-(3-carbamoyl-1-(4-((1-(4-(2,4-dioxotetrahydropyrimidin-1(2H)-yl)phenyl)piperidin-4-yl)methyl)piperazin-1-ylphenyl)-1H-pyrazol-4-yl)-6-(trifluoromethyl)picolinamide] showed an IC50 in test [1] (PBMC) of 0.01 to 0.03 µM.

For the molecule `NC(=O)c1nn(-c2ccc(N3CCN(CC4CCN(c5ccc(C(=O)NC6CCC(=O)NC6=O)cc5)CC4)CC3)cc2)cc1NC(=O)c1cccc(C(F)(F)F)n1` (centres unmarked) [Compound A171], the IC50 in test [1] (PBMC) lay within 0.01 to 0.03 µM.

Take `COc1ccc(C(=O)N2CCC(CCN3CCN(c4ccc(-n5cc(NC(=O)c6cccc(C(F)(F)F)n6)c(C(N)=O)n5)cc4)CC3)C(F)(F)C2)cc1N1CCC(=O)NC1=O` (centres unmarked) [Compound A168]: the concentration for half-maximal inhibition (IC50) in test [1] (PBMC) is below 0.01 µM.

As for “N-(3-carbamoyl-1-(4-((1-(3-(2,4-dioxotetrahydropyrimidin-1(2H)-yl)-4-methoxybenzoyl)piperidin-4-yl)methyl)piperazin-1-yl)phenyl)-1H-pyrazol-4-yl)-6-(trifluoromethyl)picolinamide [Compound A175]”, the IC50 in test [1] is below 0.01 µM.

For the molecule `NC(=O)c1sc(-c2ccccc2)cc1NC(=O)c1cccc(C(F)(F)F)n1` [Compound A50], the IC50 in test [3] was above 1 µM.

On to `COc1nn(C2CC3(CCNCC3)C2)cc1NC(=O)c1ccc2cc(C#N)cnn12` [Compound A230, 3-Cyano-N-(3-methoxy-1-(7-azaspiro[3.5]nonan-2-yl)-1H-pyrazol-4-yl)pyrrolo[1,2-b]pyridazine-7-carboxamide], for which the half-maximal inhibitory concentration (IC50) in test [3] was below 0.1 µM.

As to `O=C(Nc1cn(-c2ccccc2)nc1C(=O)NC1CC1)c1cccc(C(F)(F)F)n1` [Compound A86, N-(3-(cyclopropylcarbamoyl)-1-phenyl-1H-pyrazol-4-yl)-6-(trifluoromethyl)picolinamide], the IC50 in test [3] fell in the range of 0.1 to 1 µM.

As to `CNC(=O)c1nn(-c2ccccc2)cc1NC(=O)c1cccc(-c2ccn[nH]2)n1` [Compound A246, N-(3-(Methylcarbamoyl)-1-phenyl-1H-pyrazol-4-yl)-6-(1H-pyrazol-5-yl)picolinamide], in test [3], the IC50 is below 0.1 µM.

On to `O=C(NC1CC1)c1nn(C2CCC2)cc1NC(=O)c1cnn2ccc(-c3ccn[nH]3)nc12` [Compound A286, N-(1-cyclobutyl-3-(cyclopropylcarbamoyl)-1H-pyrazol-4-yl)-5-(1H-pyrazol-5-yl)pyrazolo[1,5-a]pyrimidine-3-carboxamide], for which the concentration for half-maximal inhibition (IC50) in test [3] was 0.1 to 1 µM.

For `NC(=O)c1nn(-c2ccc(CN3CCC4(CC3)CCN(c3ccc5c(c3)C(=O)N(C3CCC(=O)NC3=O)C5=O)CC4)cc2)cc1NC(=O)c1cccc(C(F)(F)F)n1` (centres unmarked) [Compound A222, N-(3-carbamoyl-1-(4-((9-(2-(2,6-dioxopiperidin-3-yl)-1,3-dioxoisoindolin-5-yl)-3,9-diazaspiro[5.5]undecan-3-yl)methyl)phenyl)-1H-pyrazol-4-yl)-6-(trifluoromethyl)picolinamide], in test [1] (PBMC), the IC50 fell in the range of 0.01 to 0.03 µM.

Turning to `NC(=O)c1nn(-c2ccccc2)cc1NC(=O)c1cccc(-c2nc[nH]n2)n1` [Compound A457, N-(3-Carbamoyl-1-phenyl-1H-pyrazol-4-yl)-6-(1H-1,2,4-triazol-3-yl)picolinamide], the half-maximal inhibitory concentration (IC50) in test [3] lay within 0.1 to 1 µM.

Turning to `NC(=O)c1nc(-c2ccccc2)oc1NC(=O)c1cccc(C(F)(F)F)n1` [Compound A58, 2-Phenyl-5-(6-(trifluoromethyl)picolinamido)oxazole-4-carboxamide], the IC50 in test [3] is above 1 µM.

In the case of `NC(=O)c1nn(C2CCC(N)CC2)cc1NC(=O)c1cccc(C(F)(F)F)n1` (centres unmarked) [Compound A36], in test [3], the IC50 is 0.1 to 1 µM.

`O=C(NC1CC1)c1nn(C2CCC2)cc1NC(=O)c1cnn2ccc(-c3cn[nH]c3)nc12` [Compound A287]: in test [3], the concentration for half-maximal inhibition (IC50) was in the range of 0.1 to 1 µM.

For the molecule `NCc1ccc(-n2cc(NC(=O)c3cccc(C(F)(F)F)n3)c(C(N)=O)n2)cc1` [Compound A20], the IC50 in test [3] is below 0.1 µM.

For the molecule `O=C(Nc1cn(C2CCNC2)nc1C(=O)NC1CC1)c1cccc(-c2ccn[nH]2)n1` (centres unmarked) [Compound A254, N-(3-(Cyclopropylcarbamoyl)-1-(pyrrolidin-3-yl)-1H-pyrazol-4-yl)-6-(1H-pyrazol-5-yl)picolinamide], the half-inhibitory concentration (IC50) in test [3] was in the range of 0.1 to 1 µM.

`CNc1ccc(-n2cc(NC(=O)c3cccc(C(F)(F)F)n3)c(C(N)=O)n2)cc1` [Compound A10]: the half-inhibitory concentration (IC50) in test [3] lay within 0.1 to 1 µM.

For the molecule `CC(C)(O)c1nn(C2CC3(CCNCC3)C2)cc1NC(=O)c1ccc2cc(C#N)cnn12` [Compound A106, 3-Cyano-N-(3-(2-hydroxypropan-2-yl)-1-(7-azaspiro[3.5]nonan-2-yl)-1H-pyrazol-4-yl)pyrrolo[1,2-b]pyridazine-7-carboxamide], the half-maximal inhibitory concentration (IC50) in test [3] was below 0.1 µM.

Regarding `NC(=O)c1sc(-c2ccccc2)nc1NC(=O)c1cccc(C(F)(F)F)n1` [Compound A55, 2-Phenyl-4-(6-(trifluoromethyl)picolinamido)thiazole-5-carboxamide], the half-maximal inhibitory concentration (IC50) in test [3] is above 1 µM.

For `O=C(Nc1cn(-c2ccccc2)nc1C(=O)CC(F)(F)F)c1cccc(-c2ccn[nH]2)n1` [Compound A236, N-(1-Phenyl-3-(3,3,3-trifluoropropanoyl)-1H-pyrazol-4-yl)-6-(1H-pyrazol-5-yl)picolinamide], the IC50 in test [3] lay within 0.1 to 1 µM.

As for `O=C(Nc1cn(C2CNC2)nc1C(=O)NC1CC1)c1cccc(-c2ccn[nH]2)n1` [Compound A253, N-(1-(Azetidin-3-yl)-3-(cyclopropylcarbamoyl)-1H-pyrazol-4-yl)-6-(1H-pyrazol-5-yl)picolinamide], the half-maximal inhibitory concentration (IC50) in test [3] is below 0.1 µM.

In turn, `NC(=O)c1nn(-c2ccc(N3CCN(CCC4CCN(c5ccc(NC6CCC(=O)NC6=O)cc5F)CC4)CC3)cc2)cc1NC(=O)c1cccc(C(F)(F)F)n1` (centres unmarked) [Compound A194, N-(3-Carbonyl-1-(4-(4-(2-(4-(((2,6-dioxopiperidin-3-yl)amino)-2-fluorophenyl)piperidin-4-yl)ethyl)piperazin-1-yl)phenyl)-1H-pyrazol-4-yl)-6-(trifluoromethyl)picolinamide] had an IC50 in test [1] (PBMC) below 0.01 µM.

On to `NC(=O)c1nn(-c2ccc(C(=O)N3CCNCC3)cc2)cc1NC(=O)c1cccc(C(F)(F)F)n1` [Compound A16], for which the 50% inhibitory concentration (IC50) in test [3] is below 0.1 µM.
